Legend:
[1] = target: T1, M. smegmatis TreS (Mycolicibacterium smegmatis, UniProt A0R6E0); test: hexokinase/pyruvate kinase/lactate dehydrogenase coupled NADH fluorescence; assay type: biochemical; conditions: hydrolysis to glucose; HEPES-NaOH pH 7.5, 1 mM MgCl2, trehalose 0-25 mM, TreS 0.4 μM
T1 construct: preparation of M. smegmatis TreS not described in main text
T1 sequence (A0R6E0 1-593): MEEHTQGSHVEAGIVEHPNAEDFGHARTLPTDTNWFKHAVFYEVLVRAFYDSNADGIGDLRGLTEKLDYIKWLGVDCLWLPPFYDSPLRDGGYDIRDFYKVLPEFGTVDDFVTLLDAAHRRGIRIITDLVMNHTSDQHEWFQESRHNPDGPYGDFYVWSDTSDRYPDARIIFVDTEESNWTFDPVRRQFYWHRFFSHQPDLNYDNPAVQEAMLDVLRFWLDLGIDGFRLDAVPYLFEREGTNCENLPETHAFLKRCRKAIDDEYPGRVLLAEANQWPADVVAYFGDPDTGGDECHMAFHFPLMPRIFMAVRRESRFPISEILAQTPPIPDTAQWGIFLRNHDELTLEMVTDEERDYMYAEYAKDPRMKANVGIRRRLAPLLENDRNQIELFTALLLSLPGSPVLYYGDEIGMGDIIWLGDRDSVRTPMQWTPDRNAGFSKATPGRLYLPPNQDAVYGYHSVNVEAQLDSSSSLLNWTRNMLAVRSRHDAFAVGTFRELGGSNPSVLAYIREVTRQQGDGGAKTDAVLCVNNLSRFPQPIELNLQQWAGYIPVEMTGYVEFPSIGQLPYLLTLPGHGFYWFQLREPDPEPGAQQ

[2] = target: TreS (trehalose synthase) (Mycobacterium tuberculosis, UniProt P9WQ19)
Chain of TreS (trehalose synthase) (P9WQ19 whole entry): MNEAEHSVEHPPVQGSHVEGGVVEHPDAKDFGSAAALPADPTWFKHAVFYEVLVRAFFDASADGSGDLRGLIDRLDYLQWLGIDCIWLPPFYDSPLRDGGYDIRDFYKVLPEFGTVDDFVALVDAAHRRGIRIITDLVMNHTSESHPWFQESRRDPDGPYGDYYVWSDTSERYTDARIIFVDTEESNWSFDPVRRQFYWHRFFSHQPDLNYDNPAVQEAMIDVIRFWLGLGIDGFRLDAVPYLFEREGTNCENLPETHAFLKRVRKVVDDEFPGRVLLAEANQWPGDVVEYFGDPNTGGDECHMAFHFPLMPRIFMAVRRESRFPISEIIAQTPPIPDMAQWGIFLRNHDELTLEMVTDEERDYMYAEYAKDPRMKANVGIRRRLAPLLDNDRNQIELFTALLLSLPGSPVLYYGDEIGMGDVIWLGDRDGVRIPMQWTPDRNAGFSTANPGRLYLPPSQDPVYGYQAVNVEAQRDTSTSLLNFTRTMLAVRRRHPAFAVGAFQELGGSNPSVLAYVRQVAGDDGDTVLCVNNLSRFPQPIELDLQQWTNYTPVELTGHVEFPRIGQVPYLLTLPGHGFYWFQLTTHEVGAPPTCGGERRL

In the case of OC[C@H]1O[C@H](O[C@H]2O[C@H](CO)[C@@H](O)[C@H](O)[C@H]2O)[C@H](O)[C@@H](O)[C@@H]1O [trehalose], the “hexokinase/pyruvate kinase/lactate dehydrogenase coupled NADH fluorescence” value [1] was “we monitored M. smegmatis TreS-catalyzed conversion of trehalose to glucose in an enzyme-coupled continuous assay” and the “end-point thin layer chromatography” value [2] was “Incubation of TreS with trehalose or maltose interconverted the substrates”.

For OC[C@H]1O[C@H](O[C@H]2[C@H](O)[C@@H](O)C(O)O[C@@H]2CO)[C@H](O)[C@@H](O)[C@@H]1O (stereo partly drawn) [maltose], the “end-point thin layer chromatography” value [2] was “Incubation of TreS with trehalose or maltose interconverted the substrates”.
